Assay results reported in paper PMC11249637, “Interaction of the Atypical Tetracyclines Chelocardin and Amidochelocardin with Renal Drug Transporters” (ACS Pharmacology & Translational Science, 2024).

Assays:
[1] = parameters: method as in PMID 38047701; conditions: PK samples; cited from earlier work
mOct1 = biological target: T1, mOct1 (Mus musculus, UniProt O08966); assay: Two-point inhibition of mOct1-mediated MPP uptake in transfected HEK293 cells; format: in vitro ADME; conditions: 1 and 10 μM; MPP 10 μM, 1 min
T1 construct: expressed in transfected cells; host or cells: HEK293
T1 sequence (O08966 1-556): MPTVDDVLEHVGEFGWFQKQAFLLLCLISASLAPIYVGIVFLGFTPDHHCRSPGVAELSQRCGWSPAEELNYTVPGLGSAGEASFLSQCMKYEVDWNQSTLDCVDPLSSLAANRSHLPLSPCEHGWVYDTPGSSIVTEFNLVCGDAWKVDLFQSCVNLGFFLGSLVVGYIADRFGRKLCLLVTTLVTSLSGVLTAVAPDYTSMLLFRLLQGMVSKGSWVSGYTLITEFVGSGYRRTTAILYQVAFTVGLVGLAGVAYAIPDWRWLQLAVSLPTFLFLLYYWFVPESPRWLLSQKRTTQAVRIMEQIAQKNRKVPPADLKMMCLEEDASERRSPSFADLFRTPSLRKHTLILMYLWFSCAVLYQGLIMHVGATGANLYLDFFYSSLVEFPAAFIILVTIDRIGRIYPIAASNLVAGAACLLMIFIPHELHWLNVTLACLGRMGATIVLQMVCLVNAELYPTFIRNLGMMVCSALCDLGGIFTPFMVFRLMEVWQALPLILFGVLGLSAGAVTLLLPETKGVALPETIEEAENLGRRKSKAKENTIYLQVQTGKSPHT
Description: (§1) Well-characterized mOct1-, mOct2-, mOat1-, mOat2-, mOat3-, mMate1-, hOAT1-, hOAT3-, hOAT4-, hMRP2-, mMdr1a- and mMdr1b-transfected HEK293 cells and the respective vector-transfected control HEK293 cells were used.[42],[51],[52] All HEK293 cells (transporter-transfected and vector-transfected) were cultured in DMEM (Sigma, high glucose, 10% FBS, 1% penicillin (10,000 Units/mL)/streptomycin (10 mg/mL)) at 37°C under 5% CO2 in humidified atmosphere. The cells were routinely checked for the absence of mycoplasma infection. For the preparation of HEK293 cell monolayers, 24-well plates were pretreated with a poly-D-lysine hydrobromide solution (0.1 mg/mL). […]
(§2) For the uptake assay, the growth medium was aspirated, and each well was rinsed three times with 0.5 mL of incubation buffer (HBSS supplemented with 20 mM HEPES, pH 7.4) and incubated for 20 min at 37 °C. […] Cells were solubilized with 0.6 mL of 1N NaOH overnight and transferred into scintillation vials. ^3H and ^14C contents were measured after the addition of 2.5 mL of scintillator in a liquid scintillation counter.
(§3) The cellular protein amount was determined in parallel for each cell line (vector- and transporter-transfected) from six wells in a different 24-well reference plate using the Bradford method. […]
(§4) The inhibitory effect (I(%)) was calculated according to the formula: [drawing 5] […]

hMRP2 = biological target: T2, hMRP2 (Homo sapiens, UniProt Q92887); assay: Two-point inhibition of hMRP2-mediated efflux of CDCF in transfected HEK293 cells; format: in vitro ADME; conditions: 1 and 10 μM; CDCF-DA 5 μM, efflux 10 min
T2 construct: expressed in transfected cells; host or cells: HEK293
T2 sequence (Q92887 whole entry): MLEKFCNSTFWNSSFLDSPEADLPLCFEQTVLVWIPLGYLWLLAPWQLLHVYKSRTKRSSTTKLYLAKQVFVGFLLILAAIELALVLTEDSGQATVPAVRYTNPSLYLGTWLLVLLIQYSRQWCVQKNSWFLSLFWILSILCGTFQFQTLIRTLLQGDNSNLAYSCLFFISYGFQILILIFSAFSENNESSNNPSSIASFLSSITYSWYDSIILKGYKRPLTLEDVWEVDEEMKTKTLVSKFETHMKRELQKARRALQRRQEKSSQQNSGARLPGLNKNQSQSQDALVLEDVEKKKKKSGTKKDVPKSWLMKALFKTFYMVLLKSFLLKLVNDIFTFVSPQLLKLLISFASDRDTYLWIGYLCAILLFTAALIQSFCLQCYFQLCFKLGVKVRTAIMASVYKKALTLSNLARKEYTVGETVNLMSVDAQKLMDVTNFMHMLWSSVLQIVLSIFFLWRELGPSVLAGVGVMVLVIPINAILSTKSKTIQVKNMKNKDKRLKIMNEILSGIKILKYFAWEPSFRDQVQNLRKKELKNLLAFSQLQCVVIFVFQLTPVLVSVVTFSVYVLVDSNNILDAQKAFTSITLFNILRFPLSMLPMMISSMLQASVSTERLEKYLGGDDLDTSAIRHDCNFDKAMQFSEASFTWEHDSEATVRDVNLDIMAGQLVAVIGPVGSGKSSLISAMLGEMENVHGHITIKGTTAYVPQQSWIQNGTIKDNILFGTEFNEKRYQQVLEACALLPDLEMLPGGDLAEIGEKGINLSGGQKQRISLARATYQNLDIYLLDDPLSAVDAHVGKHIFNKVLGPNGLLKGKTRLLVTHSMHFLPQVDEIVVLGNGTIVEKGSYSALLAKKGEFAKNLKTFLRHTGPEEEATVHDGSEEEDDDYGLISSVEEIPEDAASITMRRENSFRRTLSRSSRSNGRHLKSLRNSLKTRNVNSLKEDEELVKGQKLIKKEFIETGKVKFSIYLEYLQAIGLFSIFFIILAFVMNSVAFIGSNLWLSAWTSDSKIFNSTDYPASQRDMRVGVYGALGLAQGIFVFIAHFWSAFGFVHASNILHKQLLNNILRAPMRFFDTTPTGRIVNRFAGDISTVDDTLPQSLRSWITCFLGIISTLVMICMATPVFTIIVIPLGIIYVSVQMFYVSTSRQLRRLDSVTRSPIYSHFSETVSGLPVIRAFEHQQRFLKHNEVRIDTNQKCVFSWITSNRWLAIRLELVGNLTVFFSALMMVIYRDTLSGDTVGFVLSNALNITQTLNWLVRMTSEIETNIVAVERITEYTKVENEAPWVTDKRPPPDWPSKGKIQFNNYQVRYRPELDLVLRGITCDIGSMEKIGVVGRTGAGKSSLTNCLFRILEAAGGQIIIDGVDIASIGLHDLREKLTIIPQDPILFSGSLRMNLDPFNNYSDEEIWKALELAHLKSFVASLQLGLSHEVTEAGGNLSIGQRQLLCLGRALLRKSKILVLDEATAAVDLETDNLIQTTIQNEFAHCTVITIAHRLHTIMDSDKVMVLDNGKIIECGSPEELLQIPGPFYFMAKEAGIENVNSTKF
Description: as §1, with “mg/mL). Each well was coated with 0.5 mL of poly-D-lysine solution and incubated for at least 15 min.” for “mg/mL).”
After preloading, the incubation buffer was removed, cells were washed twice with cold HBSS incubation buffer, and for the efflux, 0.2 mL of incubation buffer was added to each well containing the nonlabeled CHD and CDCHD or reference inhibitor (Table S1) and incubated at 37 °C for designated time intervals. […] Samples were diluted with incubation buffer, and fluorescence was measured in a 96-well plate (Sarstedt, flat bottom) at an extinction of 490 nm and emission of 535 nm. […]
The inhibitory effect I (%) and the efflux ratio was calculated in the same way described for the uptake assays.

mOat2 = biological target: T3, mOat2 (Mus musculus, UniProt Q91WU2); assay: Two-point inhibition of mOat2-mediated cGMP uptake in transfected HEK293 cells; format: in vitro ADME; conditions: cGMP 10 μM, 5 min, read-out: inhibitory effect on mOat2
T3 construct: expressed in transfected cells; host or cells: HEK293
T3 sequence (Q91WU2 1-540): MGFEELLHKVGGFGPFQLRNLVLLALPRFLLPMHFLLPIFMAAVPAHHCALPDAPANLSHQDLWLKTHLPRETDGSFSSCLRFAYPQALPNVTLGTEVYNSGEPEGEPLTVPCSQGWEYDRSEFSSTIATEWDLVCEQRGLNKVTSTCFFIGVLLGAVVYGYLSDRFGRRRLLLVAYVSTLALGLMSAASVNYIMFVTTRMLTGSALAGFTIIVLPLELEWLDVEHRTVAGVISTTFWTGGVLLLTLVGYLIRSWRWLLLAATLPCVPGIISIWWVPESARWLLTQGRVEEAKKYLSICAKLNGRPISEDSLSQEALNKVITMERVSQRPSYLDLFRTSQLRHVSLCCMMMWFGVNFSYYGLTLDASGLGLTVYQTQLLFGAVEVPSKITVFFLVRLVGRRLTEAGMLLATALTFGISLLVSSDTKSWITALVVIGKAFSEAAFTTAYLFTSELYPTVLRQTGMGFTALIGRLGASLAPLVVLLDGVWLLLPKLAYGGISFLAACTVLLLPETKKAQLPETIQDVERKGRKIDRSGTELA
Description: as §1, §2, §3, §4

Row | SMILES | irreversible toxicity in histopathological analysis of kidneys and livers (in words) [1] | inhibitory effect on mOct1 (in words) (mOct1) | inhibitory effect on hMRP2 (in words) (hMRP2) | inhibition at 10 µM (mOat2) [%]
1 | Cc1ccc2c(C)c3c(c(O)c2c1O)C(=O)[C@@]1(O)C(=O)C(C(N)=O)=C(O)[C@@H](N)[C@H]1C3 [CDCHD, amidochelocardin] | has not been observed | slight inverse inhibitory effect | slight inhibitory effect | ~100
2 | CC(=O)C1=C(O)[C@@H](N)[C@H]2Cc3c(c(O)c4c(O)c(C)ccc4c3C)C(=O)[C@@]2(O)C1=O [CHD, chelocardin] | has not been observed | No inhibitory effect | slight inhibitory effect | ~100
